# Measurements published in PMC8472786, “Inhibitory Effects of Artificial Sweeteners on Bacterial Quorum Sensing” (International Journal of Molecular Sciences, 2021).
# Where a SMILES comes first, the peptide text is derived from it.
# Biological target: T1, LasR (Pseudomonas aeruginosa, UniProt P25084)
# T1 construct: full-length LasR
# Assay: microscale thermophoresis with fluorescently labeled purified LasR
# Type: binding
# T1 sequence (P25084 whole entry): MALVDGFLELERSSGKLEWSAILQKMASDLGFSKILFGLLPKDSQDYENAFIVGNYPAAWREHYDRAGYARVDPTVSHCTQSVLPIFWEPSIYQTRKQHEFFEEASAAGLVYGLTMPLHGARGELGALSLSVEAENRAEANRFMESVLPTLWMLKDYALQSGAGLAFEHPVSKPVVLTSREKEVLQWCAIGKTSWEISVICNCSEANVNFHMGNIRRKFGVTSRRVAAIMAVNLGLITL
row,Structure (SMILES),Kd
1,O=C1NS(=O)(=O)c2ccccc21 [saccharin],12.9 µM
2,COC(=O)[C@H](Cc1ccccc1)NC(=O)[C@@H](N)CC(=O)O [aspartame] (H-Asp-Phe-OMe),11.8 µM
3,OC[C@H]1O[C@H](O[C@]2(CCl)O[C@H](CCl)[C@@H](O)[C@@H]2O)[C@H](O)[C@@H](O)[C@H]1Cl [sucralose],12.8 µM
